Results published in PubChem BioAssay (NCI).
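Briefly, cells in 96-well plates were exposed to five compound concentrations for 48 h, and endpoints were estimated by linear interpolation. TGI: total growth inhibition.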

Experiments:
Assay in all cases: NCI tumour cell line growth inhibition, 48 h
[1] = test system: HOP-62 NSCLC
[2] = test system: MDA-MB-231 breast
[3] = test system: SK-OV-3 ovarian
[4] = test system: ACHN renal
[5] = test system: MOLT-4 leukemia
[6] = test system: DU-145 prostate
[7] = test system: NCI-H460 lung
[8] = test system: IGROV1 ovarian
[9] = test system: SW-620 colon
[10] = test system: NCI/ADR-RES ovarian
[11] = test system: HCT-116 colon
[12] = test system: SNB-75 CNS
[13] = test system: 786-0 renal
[14] = test system: LOX IMVI melanoma
[15] = test system: A498 renal
[16] = test system: MDA-MB-435
[17] = test system: SR leukemia
[18] = test system: A549 NSCLC
[19] = test system: HS 578T breast
[20] = test system: UACC-62 melanoma
[21] = test system: MCF7 breast
[22] = test system: OVCAR-8 ovarian
[23] = test system: K-562 leukemia
[24] = test system: RXF 393 renal
[25] = test system: EKVX NSCLC
[26] = test system: MDA-N
[27] = test system: SK-MEL-5 melanoma
[28] = test system: MALME-3M melanoma
[29] = test system: NCI-H226 lung
[30] = test system: BT-549 breast
[31] = test system: HL-60(TB) leukemia
[32] = test system: OVCAR-4 ovarian
[33] = test system: NCI-H23 lung
[34] = test system: OVCAR-5 ovarian
[35] = test system: UACC-257 melanoma
[36] = test system: NCI-H522 lung
[37] = test system: OVCAR-3 ovarian
[38] = test system: SF-295 CNS
[39] = test system: COLO 205 colon
[40] = test system: SK-MEL-2 melanoma
[41] = test system: TK-10 renal
[42] = test system: KM12 colon
[43] = test system: M14 melanoma
[44] = test system: SN12C renal
[45] = test system: CAKI-1 renal
[46] = test system: RPMI-8226 leukemia
[47] = test system: CCRF-CEM leukemia
[48] = test system: U251 CNS
[49] = test system: HCC-2998 colon
[50] = test system: SK-MEL-28 melanoma
[51] = test system: SF-539 CNS
[52] = test system: T-47D breast
[53] = test system: HCT-15 colon
[54] = test system: HT29 colon
[55] = test system: SNB-19 CNS
[56] = test system: PC-3 prostate
[57] = test system: SF-268 CNS
[58] = test system: UO-31 renal
[59] = test system: HOP-92 NSCLC

`CCOc1c(OC)cc(-c2nc3n(n2)C(=O)C(CC)S3)cc1OC` (centres undefined) showed a TGI [1] of over 10 µM, a TGI [2] of over 10 µM and a TGI [3] of over 10 µM. For the same molecule, the TGI [4] was over 10 µM, the TGI [5] was over 10 µM and the TGI [6] was over 10 µM. It also gave a TGI [7] of over 10 µM, a TGI [8] of over 10 µM and a TGI [9] of over 10 µM. It also gave a TGI [10] of over 10 µM, a TGI [11] of over 10 µM and a TGI [12] of over 10 µM. It also gave a TGI [13] of over 10 µM, a TGI [14] of over 10 µM and a TGI [15] of over 10 µM. It also gave a TGI [16] of over 10 µM, a TGI [17] of over 10 µM and a TGI [18] of over 10 µM. The TGI [19] was over 10 µM, the TGI [20] was over 10 µM and the TGI [21] was over 10 µM. It also gave a TGI [22] of over 10 µM, a TGI [23] of over 10 µM and a TGI [24] of over 10 µM. The TGI [25] was over 10 µM, the TGI [26] was over 10 µM and the TGI [27] was over 10 µM. It also gave a TGI [28] of over 10 µM, a TGI [29] of over 10 µM and a TGI [30] of over 10 µM. The TGI [31] was over 10 µM, the TGI [32] was over 10 µM and the TGI [33] was over 10 µM. The TGI [34] was over 10 µM, the TGI [35] was over 10 µM and the TGI [36] was over 10 µM. It also gave a TGI [37] of over 10 µM, a TGI [38] of over 10 µM and a TGI [39] of over 10 µM. The TGI [40] was over 10 µM, the TGI [41] was over 10 µM and the TGI [42] was over 10 µM. For the same molecule, the TGI [43] was over 10 µM, the TGI [44] was over 10 µM and the TGI [45] was over 10 µM. The TGI [46] was over 10 µM, the TGI [47] was over 10 µM and the TGI [48] was over 10 µM. It also gave a TGI [49] of over 10 µM, a TGI [50] of over 10 µM and a TGI [51] of over 10 µM. It also gave a TGI [52] of over 10 µM, a TGI [53] of over 10 µM and a TGI [54] of over 10 µM. The TGI [55] was over 10 µM, the TGI [56] was over 10 µM and the TGI [57] was over 10 µM.

`COc1ccc(/C=N/NC(=O)c2ccc(O)c(CN(C)C)c2)cc1` showed a TGI [1] of over 100 µM, a TGI [2] of over 100 µM and a TGI [3] of over 100 µM. It also gave a TGI [4] of over 100 µM, a TGI [5] of over 100 µM and a TGI [6] of over 100 µM. It also gave a TGI [7] of over 100 µM, a TGI [8] of over 100 µM and a TGI [9] of over 100 µM. It also gave a TGI [10] of over 100 µM, a TGI [11] of over 100 µM and a TGI [13] of over 100 µM. For the same molecule, the TGI [14] was over 100 µM, the TGI [15] was 37.4 µM and the TGI [58] was over 100 µM. For the same molecule, the TGI [16] was over 100 µM, the TGI [17] was over 100 µM and the TGI [18] was over 100 µM. It also gave a TGI [19] of over 100 µM, a TGI [20] of over 100 µM and a TGI [21] of over 100 µM. For the same molecule, the TGI [22] was over 100 µM, the TGI [23] was over 100 µM and the TGI [24] was over 100 µM. It also gave a TGI [25] of over 100 µM, a TGI [26] of over 100 µM and a TGI [27] of over 100 µM. For the same molecule, the TGI [28] was over 100 µM, the TGI [29] was over 100 µM and the TGI [30] was over 100 µM. It also gave a TGI [31] of over 100 µM, a TGI [32] of over 100 µM and a TGI [33] of over 100 µM. The TGI [34] was over 100 µM, the TGI [35] was over 100 µM and the TGI [36] was 90.3 µM. It also gave a TGI [37] of over 100 µM, a TGI [38] of over 100 µM and a TGI [39] of over 100 µM. The TGI [40] was over 100 µM, the TGI [41] was over 100 µM and the TGI [42] was over 100 µM. The TGI [43] was over 100 µM, the TGI [44] was over 100 µM and the TGI [45] was over 100 µM. For the same molecule, the TGI [47] was over 100 µM, the TGI [48] was over 100 µM and the TGI [49] was over 100 µM. The TGI [59] was over 100 µM, the TGI [50] was over 100 µM and the TGI [51] was over 100 µM. For the same molecule, the TGI [52] was over 100 µM, the TGI [53] was over 100 µM and the TGI [54] was over 100 µM. The TGI [55] was over 100 µM, the TGI [56] was over 100 µM and the TGI [57] was over 100 µM.

`O=C(O)c1ccc(CNCc2ccccc2)cc1` gave a TGI [1] of over 100 µM, a TGI [2] of over 100 µM and a TGI [3] of over 100 µM. It also gave a TGI [4] of over 100 µM, a TGI [5] of over 100 µM and a TGI [6] of over 100 µM. For the same molecule, the TGI [7] was over 100 µM, the TGI [8] was over 100 µM and the TGI [9] was over 100 µM. For the same molecule, the TGI [10] was over 100 µM, the TGI [11] was over 100 µM and the TGI [13] was over 100 µM. It also gave a TGI [14] of over 100 µM, a TGI [15] of over 100 µM and a TGI [58] of over 100 µM. For the same molecule, the TGI [16] was over 100 µM, the TGI [17] was over 100 µM and the TGI [18] was over 100 µM. It also gave a TGI [19] of over 100 µM, a TGI [20] of over 100 µM and a TGI [21] of over 100 µM. The TGI [22] was over 100 µM, the TGI [23] was over 100 µM and the TGI [24] was over 100 µM. It also gave a TGI [25] of over 100 µM, a TGI [26] of over 100 µM and a TGI [27] of over 100 µM. The TGI [28] was over 100 µM, the TGI [29] was over 100 µM and the TGI [30] was over 100 µM. For the same molecule, the TGI [31] was over 100 µM, the TGI [32] was over 100 µM and the TGI [33] was over 100 µM. It also gave a TGI [34] of over 100 µM, a TGI [35] of over 100 µM and a TGI [36] of over 100 µM. It also gave a TGI [37] of over 100 µM, a TGI [38] of over 100 µM and a TGI [39] of over 100 µM. For the same molecule, the TGI [40] was over 100 µM, the TGI [41] was over 100 µM and the TGI [42] was over 100 µM. The TGI [43] was over 100 µM, the TGI [44] was over 100 µM and the TGI [45] was over 100 µM. For the same molecule, the TGI [46] was over 100 µM, the TGI [47] was over 100 µM and the TGI [48] was over 100 µM. It also gave a TGI [59] of over 100 µM, a TGI [50] of over 100 µM and a TGI [51] of over 100 µM. It also gave a TGI [52] of over 100 µM, a TGI [53] of over 100 µM and a TGI [54] of over 100 µM. The TGI [55] was over 100 µM, the TGI [56] was over 100 µM and the TGI [57] was over 100 µM.

In the case of `CN(C)Cc1cc(C(=O)/C=C/c2ccc([N+](=O)[O-])cc2)cc(CN(C)C)c1O`, the TGI [1] is reported as 19.5 µM, the TGI [2] is reported as 28.5 µM and the TGI [4] is reported as 10.2 µM. It also gave a TGI [5] of 51.2 µM, a TGI [6] of 23 µM and a TGI [8] of 35.6 µM. It also gave a TGI [9] of 27.1 µM, a TGI [10] of 87 µM and a TGI [11] of 13.1 µM. For the same molecule, the TGI [12] was 33.3 µM, the TGI [13] was 15.2 µM and the TGI [14] was 5.5 µM. The TGI [15] was 23.9 µM, the TGI [58] was over 100 µM and the TGI [16] was 37.3 µM. It also gave a TGI [17] of 22.2 µM, a TGI [18] of 89 µM and a TGI [19] of 60.3 µM. It also gave a TGI [20] of 33.3 µM, a TGI [21] of 34.9 µM and a TGI [22] of over 100 µM. For the same molecule, the TGI [23] was over 100 µM, the TGI [24] was 38.1 µM and the TGI [25] was 37.3 µM. The TGI [26] was 24.7 µM, the TGI [27] was 23.4 µM and the TGI [29] was 19.2 µM. For the same molecule, the TGI [30] was 37.1 µM, the TGI [31] was 5.46 µM and the TGI [33] was 47.5 µM. It also gave a TGI [34] of 34.5 µM, a TGI [35] of 33.6 µM and a TGI [36] of 20.1 µM. For the same molecule, the TGI [37] was 20.6 µM, the TGI [38] was 38.9 µM and the TGI [39] was 4.67 µM. It also gave a TGI [40] of 30.1 µM, a TGI [41] of 45.7 µM and a TGI [42] of 29.7 µM. For the same molecule, the TGI [43] was 23.3 µM, the TGI [44] was 20.2 µM and the TGI [46] was 6.98 µM. It also gave a TGI [47] of 21.4 µM, a TGI [48] of 14.9 µM and a TGI [49] of 32.5 µM. For the same molecule, the TGI [59] was 26.2 µM, the TGI [51] was 40.5 µM and the TGI [52] was 32 µM. The TGI [53] was 25.1 µM, the TGI [54] was 25 µM and the TGI [55] was over 100 µM. It also gave a TGI [56] of 33.9 µM and a TGI [57] of 42.9 µM.
